Patent US9133157B2, “HIV protease inhibitors” (Merck Canada Inc., priority 2011, dated 2015)

target: WT HIV-1 protease (Human immunodeficiency virus type 1 group M subtype B (isolate HXB2) (HIV-1), UniProt P04585); assay: Assay for inhibition of microbial expressed HIV protease (Procedure A, peptide substrate, HPLC fluorescence detection); format: biochemical; settings: WT HIV-1 protease 10 pM, substrate 400 micromolar, pH 5.5, 30 min preincubation, 1 hour at 30° C.; read-out: Enzyme inhibition IC50
Protocol: The inhibition of WT HIV-1 protease was studied using the reaction of the protease (expressed in Eschericia coli) with a peptide substrate [Val-Ser-Gln-Asn-(betanaphthyl)Ala-Pro-Ile-Val (SEQ ID NO:1)]. Compounds were tested using Procedure A. In Procedure A, the test compound was first preincubated with the enzyme in assay buffer (50 mM sodium acetate, pH 5.5, 100 mM NaCl, and 0.1% BSA) for 30 minutes at room temperature. Substrate was then added to 400 micromolar in a total volume of 80 microliters containing 10 picomolar HIV-1 protease and the reaction was incubated for 1 hour at 30° C. The reaction was quenched with the addition of 120 microliters of 10% phosphoric acid. The product formation was determined after separation of product and substrate on a Zorbax Eclipse XDB-C18 column (Agilent Technologies, Santa Clara, Calif.) connected to an Agilent 1100 high performance liquid chromatography system with fluorescence detection (excitation 270 nanometer and emission 330 nanometer).

In order of rising IC50:
1. COC(=O)N[C@H](C(=O)NC(C)c1ccc(C(CO)N(CCC(C)C)S(=O)(=O)c2ccc(CO)cc2)s1)C(c1ccccc1)c1ccccc1 (stereo partly drawn) [Example 8]  0.31 nM
2. COC(=O)N[C@H](C(=O)NCc1ccc([C@@H](CO)N(CC2CC(F)(F)C2)S(=O)(=O)c2ccc3cc[nH]c(=O)c3c2)s1)C(c1ccccc1)c1ccccc1 [Example 16]  0.44 nM
3. COC(=O)N[C@H](C(=O)NCc1ccc(C(CO)N(CCC(C)C)S(=O)(=O)c2ccc(CO)cc2)s1)C(c1ccccc1)c1ccccc1 (stereo partly drawn) [Example 5]  0.54 nM
4. CCC(NC(=O)[C@@H](NC(=O)OC)C(c1ccccc1)c1ccccc1)c1ccc(C(CO)N(CCC(C)C)S(=O)(=O)c2ccc(CO)cc2)s1 (stereo partly drawn) [Example 9]  0.63 nM
5. COC(=O)N[C@H](C(=O)NCc1ccc([C@@H](CO)N(Cc2ccnc(OC)c2)S(=O)(=O)c2ccc3scnc3c2)s1)C(c1ccccc1)c1ccccc1 [Example 28]  1.45 nM
6. COC(=O)N[C@H](C(=O)NCc1ccc([C@@H](CO)N(CC2CC(F)(F)C2)S(=O)(=O)c2ccc(N)cc2)s1)C(c1ccccc1)c1ccccc1 [Example 11]  1.61 nM
7. COC(=O)N[C@H](C(=O)NCc1ccc([C@@H](CO)N(Cc2cn[nH]c2)S(=O)(=O)c2ccc3scnc3c2)s1)C(c1ccccc1)c1ccccc1 [Example 32]  2.27 nM
8. COC(=O)N[C@H](C(=O)NCc1ccc([C@@H](CO)N(CC2CC(F)(F)C2)S(=O)(=O)c2ccc3c(c2)COCC3)s1)C(c1ccccc1)c1ccccc1 [Example 17]  2.4 nM
9. COC(=O)N[C@H](C(=O)NCc1ccc([C@@H](CO)N(CC(C)C)S(=O)(=O)c2ccc(N)cc2)s1)C(c1ccccc1)c1ccccc1 [Example 10, N-({5-[(1R)-1-{[(4-aminophenyl)sulfonyl](2-methylpropyl)amino}-2-hydroxyethyl]thiophen-2-yl}methyl)-Nα-(methoxycarbonyl)-β-phenyl-L-phenylalaninamide]  2.6 nM
10. COC(=O)N[C@H](C(=O)NC(C)c1ccc(C(CO)N(CCC(C)C)S(=O)(=O)c2ccccc2)s1)C(c1ccccc1)c1ccccc1 (stereo partly drawn) [Example 7, N-[1-(5-{2-hydroxy-1-[(3-methylbutyl)(phenylsulfonyl)amino]ethyl}thiophen-2-yl)ethyl]-Nα-(methoxycarbonyl)-β-phenyl-L-phenylalaninamide]  3.5 nM
11. COC(=O)N[C@H](C(=O)NCc1ccc(C(CO)N(Cc2cn[nH]c2)S(=O)(=O)c2ccc3scnc3c2)s1)C(c1ccccc1)c1ccccc1 (stereo partly drawn) [Example 31]  3.62 nM
12. COC(=O)N[C@H](C(=O)NCc1ccc(C(CO)N(CC2CC(F)(F)C2)S(=O)(=O)c2ccc3c(c2)CCC3O)s1)C(c1ccccc1)c1ccccc1 (stereo partly drawn) [Example 36]  3.65 nM
13. COC(=O)N[C@H](C(=O)NCc1ccc([C@@H](CO)N(Cc2cc3cccnc3[nH]2)S(=O)(=O)c2ccc(N)cc2)s1)C(c1ccccc1)c1ccccc1 [Example 13]  3.9 nM
14. COC(=O)N[C@H](C(=O)NCc1ccc([C@@H](CO)N(CC(C)C)S(=O)(=O)c2cccc(CC(C)(C)O)c2)s1)C(c1ccccc1)c1ccccc1 [Example 14]  4.1 nM
15. COC(=O)N[C@H](C(=O)NCc1ccc([C@@H](CO)N(CC2CC(F)(F)C2)S(=O)(=O)c2ccc(N)c(F)c2)s1)C(c1ccccc1)c1ccccc1 [Example 43]  5.04 nM
16. COC(=O)N[C@H](C(=O)NCc1ccc(C(CO)N(Cc2cnn(S(=O)(=O)N(C)C)c2)S(=O)(=O)c2ccc3scnc3c2)s1)C(c1ccccc1)c1ccccc1 (stereo partly drawn) [Example 30]  5.13 nM
17. COC(=O)N[C@H](C(=O)NCc1ccc([C@@H](CO)N(CC2CC(F)(F)C2)S(=O)(=O)c2ccc3c(c2)CCC3O)s1)C(c1ccccc1)c1ccccc1 (stereo partly drawn) [Example 37]  5.65 nM
18. COC(=O)N[C@H](C(=O)NCc1ccc([C@@H](CO)N(CC(C)C)S(=O)(=O)c2ccc3scnc3c2)s1)C(c1ccccc1)c1ccccc1 [Example 22]  6.1 nM
19. COC(=O)N[C@H](C(=O)NCc1ccc([C@@H](CO)N(CC2CC(F)(F)C2)S(=O)(=O)c2cccc(CC(C)(C)O)c2)s1)C(c1ccccc1)c1ccccc1 [Example 15]  6.6 nM
20. COC(=O)N[C@H](C(=O)NCc1ccc([C@@H](CO)N(Cc2nonc2C)S(=O)(=O)c2ccc(N)cc2)s1)C(c1ccccc1)c1ccccc1 [Example 18]  6.95 nM
21. COC(=O)N[C@H](C(=O)NCc1ccc(C(CO)N(Cc2cnon2)S(=O)(=O)c2ccc(N)cc2)s1)C(c1ccccc1)c1ccccc1 (stereo partly drawn) [Example 20]  6.97 nM
22. COC(=O)N[C@H](C(=O)NCc1ccc([C@@H](CO)N(Cc2cc3ccccc3[nH]2)S(=O)(=O)c2ccc3scnc3c2)s1)C(c1ccccc1)c1ccccc1 [Example 25]  7.99 nM
23. COC(=O)N[C@H](C(=O)NCc1ccc(C(CO)N(CCC(C)C)S(=O)(=O)c2ccccc2)s1)C(c1ccccc1)c1ccccc1 (stereo partly drawn) [Example 4]  8.81 nM
24. COC(=O)N[C@H](C(=O)NCc1ccc([C@@H](CO)N(CC2CC(F)(F)C2)S(=O)(=O)c2ccc3cc[nH]c3c2)s1)C(c1ccccc1)c1ccccc1 [Example 41]  8.83 nM
25. COC(=O)N[C@H](C(=O)NCc1ccc([C@@H](CO)N(Cc2cc3cccnc3[nH]2)S(=O)(=O)c2ccc3scnc3c2)s1)C(c1ccccc1)c1ccccc1 [Example 35]  11.9 nM
26. COC(=O)N[C@H](C(=O)NCc1ncc(C(CO)N(CCC(C)C)S(=O)(=O)c2ccccc2)s1)C(c1ccccc1)c1ccccc1 (stereo partly drawn) [Example 3, N-[(5-{2-hydroxy-1-[(3-methylbutyl)(phenylsulfonyl)amino]ethyl}-1,3-thiazol-2-yl)methyl]-Nα-(methoxycarbonyl)-β-phenyl-L-phenylalaninamide]  12.1 nM
27. COC(=O)N[C@H](C(=O)NCc1ccc(C(CO)N(Cc2cc3ccccc3[nH]2)S(=O)(=O)c2ccc3scnc3c2)s1)C(c1ccccc1)c1ccccc1 (stereo partly drawn) [Example 24]  13.6 nM
28. COC(=O)N[C@H](C(=O)NCc1ccc([C@@H](CO)N(CC2CC(F)(F)C2)S(=O)(=O)c2ccc3c(c2)C(O)CC3)s1)C(c1ccccc1)c1ccccc1 (stereo partly drawn) [Example 38]  13.6 nM
29. COC(=O)N[C@H](C(=O)NCc1ccc(C(CO)N(Cc2ccnc(OC)c2)S(=O)(=O)c2ccc3scnc3c2)s1)C(c1ccccc1)c1ccccc1 (stereo partly drawn) [Example 27]  15.5 nM
30. COC(=O)N[C@H](C(=O)NCc1ccc([C@@H](CO)N(C(C)C)S(=O)(=O)c2ccc(N)cc2)s1)C(c1ccccc1)c1ccccc1 [Example 12]  18.8 nM
31. COC(=O)N[C@H](C(=O)NCc1ccc(C(CO)N(Cc2cccnc2OC)S(=O)(=O)c2ccc3scnc3c2)s1)C(c1ccccc1)c1ccccc1 (stereo partly drawn) [Example 26]  31 nM
32. COC(=O)N[C@H](C(=O)NCc1ccc([C@@H](CO)N(Cc2cnon2)S(=O)(=O)c2ccc(N)cc2)s1)C(c1ccccc1)c1ccccc1 [Example 19]  33.8 nM
33. COC(=O)N[C@H](C(=O)NCc1ccc(C(CO)N(Cc2cc3cccnc3[nH]2)S(=O)(=O)c2ccc3scnc3c2)s1)C(c1ccccc1)c1ccccc1 (stereo partly drawn) [Example 34]  35 nM
34. COC(=O)N[C@H](C(=O)NCc1cc(C(CO)N(CCC(C)C)S(=O)(=O)c2ccccc2)cs1)C(c1ccccc1)c1ccccc1 (stereo partly drawn) [Example 6, N-[(4-{2-hydroxy-1-[(3-methylbutyl)(phenylsulfonyl)amino]ethyl}thiophen-2-yl)methyl]-Nα-(methoxycarbonyl)-β-phenyl-L-phenylalaninamide]  42.7 nM
35. COC(=O)N[C@H](C(=O)NCc1ccc([C@H](CO)N(CC(C)C)S(=O)(=O)c2ccc3scnc3c2)s1)C(c1ccccc1)c1ccccc1 [Example 23]  60.9 nM
36. COC(=O)N[C@H](C(=O)NCc1ccc(C(CO)N(C(C)C)S(=O)(=O)c2ccc3scnc3c2)s1)C(c1ccccc1)c1ccccc1 (stereo partly drawn) [Example 21]  62.4 nM
37. COC(=O)N[C@H](C(=O)NCc1csc(C(CO)N(CCC(C)C)S(=O)(=O)c2ccccc2)c1)C(c1ccccc1)c1ccccc1 (stereo partly drawn) [Example 1, N-[(5-{2-hydroxy-1-[(3-methylbutyl)(phenylsulfonyl)amino]ethyl}thiophen-3-yl)methyl]-Nα-(methoxycarbonyl)-β-phenyl-L-phenylalaninamide]  72.8 nM
38. COC(=O)N[C@H](C(=O)NCc1ccc([C@H](CO)N(Cc2cn[nH]c2)S(=O)(=O)c2ccc3scnc3c2)s1)C(c1ccccc1)c1ccccc1 [Example 33]  96.6 nM
39. COC(=O)N[C@H](C(=O)NCc1ccc([C@H](CO)N(Cc2ccnc(OC)c2)S(=O)(=O)c2ccc3scnc3c2)s1)C(c1ccccc1)c1ccccc1 [Example 29]  106 nM
40. COC(=O)N[C@H](C(=O)NCc1ccc([C@@H](CO)N(CC2CC(F)(F)C2)S(=O)(=O)c2cccc(Cc3ccccn3)c2)s1)C(c1ccccc1)c1ccccc1 [Example 42]  110 nM
41. COC(=O)N[C@H](C(=O)NCc1ccc([C@@H](CO)N(CC2CC(F)(F)C2)S(=O)(=O)c2cccc(C(=O)c3ccccn3)c2)s1)C(c1ccccc1)c1ccccc1 [Example 40]  175 nM
42. COC(=O)N[C@H](C(=O)NCc1cnc(C(CO)N(CCC(C)C)S(=O)(=O)c2ccccc2)s1)C(c1ccccc1)c1ccccc1 (stereo partly drawn) [Example 2, N-[(2-{2-hydroxy-1-[(3-methylbutyl)(phenylsulfonyl)amino]ethyl}-1,3-thiazol-5-yl)methyl]-Nα-(methoxycarbonyl)-β-phenyl-L-phenylalaninamide]  250 nM
